# Active and inactive are the calls of the source. The calls are words filed in the database; no cut-off is given here.
# Assays:
# MDA-MB-231 [1] = assay: Antiproliferative activity against human MDA-MB-231 cells incubated for 48 hrs by MTT assay; assay type: functional, cell-based; conditions: MDA-MB-231, 48 h
# MDA-MB-231 [2] = assay: Inhibition of cell proliferation of human MDA-MB-231 cells at 2.5 uM by EdU staining based analysis; assay type: functional
# MDA-MB-231 [3] = assay: Induction of apoptosis in human MDA-MB-231 cells assessed as viable cells at 2.5 uM incubated for 12 to 48 hrs by Annexin V-FITC/PI staining based flow cytometry (reference value: 97.0 %); assay type: functional; conditions: time 12-48 hrs, read-out: Activity
# MDA-MB-231 [4] = assay: Inhibition of 3D-spherioid formation of human MDA-MB-231 cells at 2.5 uM by crystal violet staining based colony formation assay; assay type: functional, cell-based
# MDA-MB-231 [5] = assay: Induction of apoptosis in human MDA-MB-231 cells assessed as late apoptotic cells at 2.5 uM incubated for 12 to 48 hrs by Annexin V-FITC/PI staining based flow cytometry (reference value: 1.48 %); assay type: functional; conditions: time 12-48 hrs
# MDA-MB-231 [6] = assay: Induction of apoptosis in human MDA-MB-231 cells assessed as early apoptotic cells at 2.5 uM incubated for 12 to 48 hrs by Annexin V-FITC/PI staining based flow cytometry (reference value: 1.12 %); assay type: functional; conditions: time 12-48 hrs
# MDA-MB-231 [7] = assay: Inhibition of cell migration in human MDA-MB-231 cells at 2.5 uM incubated upto 48 hrs by wound healing assay; assay type: functional, cell-based
# MDA-MB-231 [8] = assay: Induction of apoptosis in human MDA-MB-231 cells assessed as necrotic cells at 2.5 uM incubated for 12 to 48 hrs by Annexin V-FITC/PI staining based flow cytometry (reference value: 0.43 %); assay type: functional; conditions: time 12-48 hrs
# MDA-MB-231 [9] = assay: Inhibition of cell proliferation of human MDA-MB-231 cells assessed as decrease in Ki-67 expression at 2.5 uM incubated for 24 hrs by immunofluorescence based analysis; assay type: functional
# MDA-MB-231 [10] = assay: Inhibition of cell proliferation of human MDA-MB-231 cells at 2.5 uM by crystal violet staining based colony formation assay; assay type: functional
# MDA-MB-231 [11] = assay: Inhibition of cell migration in human MDA-MB-231 cells at 2.5 uM incubated for 24 hrs by transwell assay; assay type: functional, cell-based
# [12] = target: Serine/threonine-protein kinase PAK 1 (Homo sapiens, UniProt Q13153); assay: Inhibition of PAK1 (unknown origin)
# Sequence of Serine/threonine-protein kinase PAK 1 (Q13153 whole entry): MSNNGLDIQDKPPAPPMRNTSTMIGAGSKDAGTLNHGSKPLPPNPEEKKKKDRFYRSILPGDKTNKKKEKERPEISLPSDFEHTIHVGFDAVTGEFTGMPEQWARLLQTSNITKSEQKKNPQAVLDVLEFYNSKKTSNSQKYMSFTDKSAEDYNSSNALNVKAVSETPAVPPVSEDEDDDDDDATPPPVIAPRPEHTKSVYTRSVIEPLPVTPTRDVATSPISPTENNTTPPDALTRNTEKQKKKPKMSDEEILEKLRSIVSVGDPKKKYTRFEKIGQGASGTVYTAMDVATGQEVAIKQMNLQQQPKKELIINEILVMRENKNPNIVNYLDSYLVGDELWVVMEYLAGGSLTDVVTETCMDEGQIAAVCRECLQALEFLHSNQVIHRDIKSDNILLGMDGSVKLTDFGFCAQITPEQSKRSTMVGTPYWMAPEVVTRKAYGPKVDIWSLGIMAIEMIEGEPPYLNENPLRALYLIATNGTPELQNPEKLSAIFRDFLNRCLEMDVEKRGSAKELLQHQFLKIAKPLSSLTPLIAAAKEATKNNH
# MDA-MB-231 [13] = assay: Antiproliferative activity against human MDA-MB-231 cells; assay type: functional, cell-based
IC50 (MDA-MB-231 [1]),IC50 [12],IC50 (MDA-MB-231 [13]),SMILES,inhibition (MDA-MB-231 [2]),viability at 2.5 µM (MDA-MB-231 [3]),inhibition (MDA-MB-231 [4]),Activity (MDA-MB-231 [5]),Activity (MDA-MB-231 [6]),inhibition (MDA-MB-231 [7]),Activity (MDA-MB-231 [8]),inhibition (MDA-MB-231 [9]),inhibition (MDA-MB-231 [10]),inhibition (MDA-MB-231 [11])
3.23 µM,,,CCn1c(=O)c(-c2ccc(-c3cncs3)cc2Cl)cc2cnc(Nc3ccc(N4CCN(C)CC4)cc3)nc21,Active,97.2%,Active,1.08%,1.67%,inactive,0.058%,Active,Active,Active
28.6 µM,0.052 µM,28.6 µM,CNc1ncc2cc(-c3ccc(Cl)cc3Cl)c(=O)[nH]c2n1,,,,,,,,,,
